Results on three molecules are retold here after patent US7521448B2, “N-substituted benzimidazolyl c-Kit inhibitors” (OSI Pharmaceuticals, Inc., priority 2003, dated 2009).

Where a name gives a salt, the structure may show the parent alone. Where only a bound is given, the exact number is not on record here.

In assay [1] the test system is MO7e human leukemia cells. Conditions: cited from earlier work.
The subject of assay [2] is MO7e human leukemia cells. To be noted: cited from earlier work. This is another data set of the same source.
The target of assay [3] is T1, wild-type c-Kit receptor protein endogenously expressed in H526 cells (Homo sapiens, UniProt P10721).
T1 construct: wild-type c-Kit receptor protein that is endogenously expressed in H526 cells; host or cells: H526 human small cell lung cancer cells
In words: Assay for inhibition of c-Kit in intact cells (cell-based ELISA of SCF-induced tyrosine phosphorylation). To be noted: read-out: results in the assay above (IC50, inhibition of SCF-induced tyrosine phosphorylation of c-Kit). The procedure: I. Assay for Inhibition of c-Kit in Intact Cells
The ability of compounds to inhibit the tyrosine kinase activity of c-Kit was determined in a cell-based ELISA assay using the H526 cell line (ATCC # CRL-5811), which was originally derived from a human small cell lung cancer. The assay determines the ability of compounds to block ligand-stimulated tyrosine phosphorylation of the wild-type c-Kit receptor protein that is endogenously expressed in H526 cells. Cells are pre-incubated with compounds at various concentrations prior to addition of stem cell factor (SCF), the ligand for the c-Kit receptor tyrosine kinase. […] The phosphotyrosine content of the receptor protein is then monitored by quantitation of the degree of binding of an antibody that recognizes only the phosphorylated tyrosine residues within the captured protein. The antibody used has a reporter enzyme (e.g. horseradish peroxidase, HRP) covalently attached, such that binding of antibody to phosphorylated c-Kit can be determined quantitatively by incubation with an appropriate HRP substrate. […]
Comparison of the assay signals obtained in the presence of compound with those of the positive and negative controls (cells incubated in the presence or absence of SCF, with no compound added), allows the degree of inhibition of c-Kit receptor tyrosine phosphorylation to be determined over a range of compound concentrations. […]
For orientation: An ELISA detects its analyte on a solid surface through an enzyme-linked reagent.

Usually IC50 stands for the concentration that inhibits the measured activity by half.

T1 sequence (P10721 26-976): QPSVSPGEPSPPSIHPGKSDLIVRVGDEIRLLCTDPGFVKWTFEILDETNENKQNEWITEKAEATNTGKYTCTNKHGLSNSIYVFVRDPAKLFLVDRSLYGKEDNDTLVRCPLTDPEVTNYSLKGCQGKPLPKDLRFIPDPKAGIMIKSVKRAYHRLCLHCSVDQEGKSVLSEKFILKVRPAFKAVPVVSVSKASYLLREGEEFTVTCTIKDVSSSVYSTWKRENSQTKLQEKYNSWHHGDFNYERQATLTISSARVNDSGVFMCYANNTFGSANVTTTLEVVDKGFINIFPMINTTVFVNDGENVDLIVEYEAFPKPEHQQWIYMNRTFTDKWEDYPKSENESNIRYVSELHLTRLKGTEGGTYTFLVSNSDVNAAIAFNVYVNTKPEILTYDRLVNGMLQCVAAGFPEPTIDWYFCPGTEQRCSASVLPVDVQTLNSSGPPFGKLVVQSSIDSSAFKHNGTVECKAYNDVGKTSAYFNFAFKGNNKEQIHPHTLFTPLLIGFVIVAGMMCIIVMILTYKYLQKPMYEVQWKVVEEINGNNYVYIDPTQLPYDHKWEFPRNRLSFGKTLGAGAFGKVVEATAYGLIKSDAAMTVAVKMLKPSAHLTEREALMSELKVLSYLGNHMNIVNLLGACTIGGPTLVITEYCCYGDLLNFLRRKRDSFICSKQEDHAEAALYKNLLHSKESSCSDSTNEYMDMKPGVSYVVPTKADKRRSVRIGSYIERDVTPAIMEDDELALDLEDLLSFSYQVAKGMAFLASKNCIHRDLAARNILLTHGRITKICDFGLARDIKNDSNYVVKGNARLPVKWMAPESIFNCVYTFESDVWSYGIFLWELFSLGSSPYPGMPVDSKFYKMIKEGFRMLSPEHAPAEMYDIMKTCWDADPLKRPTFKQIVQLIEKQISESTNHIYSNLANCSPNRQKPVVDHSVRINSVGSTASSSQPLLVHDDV

For the molecule `Cc1ccc(NC(=O)c2ccc(CN3CCN(C)CC3)cc2)cc1Nc1nccc(-c2cccnc2)n1` [Gleevec™, imatinib mesylate], the “GM-CSF stimulated growth of MO7e human leukemia cells” value in assay [1] is given as “not affected”. Further, in assay [2] (Kit ligand-stimulated), the “Kit ligand-stimulated growth of MO7e human leukemia cells” value is listed as “inhibited”. In addition, the apoptosis entry in assay [2] (under Kit ligand-stimulated conditions, MO7e cells) is “induces apoptosis”.
As to `O=C(NCc1cccnc1)c1ccc2c(c1)ncn2-c1ccc(OCCOc2ncc(C(F)(F)F)cc2Cl)cc1` [Compound H13, N-Pyridin-3-ylmethyl-1-{4-[2-(3-chloro-5-trifluoromethylpyridin-2-yloxy)ethoxy]phenyl}-1H-benzimidazole-5-carboxamide], in assay [3], the IC50 was more than 10 µM.
The same measure, in the same setting: for `O=C(NCc1cccnc1)c1ccc2c(c1)ncn2-c1cccc(NS(=O)(=O)c2cccc(Cl)c2)c1` [Compound Q5, 1-(3-{[(3-Chlorophenyl)sulfonyl]amino}phenyl)-N-pyridin-3-ylmethyl-1H-benzimidazole-5-carboxamide] the value was more than 10 µM.
